Data taken from ChEMBL document CHEMBL5523766 (J Med Chem, 2024).

Legend:
[1] = Brain to plasma ratio in ICR mouse at 50 mg/kg,po measured upto 24 hrs by LC-MS/MS analysis; assay type: ADME, organism-based
CYP3A4 = CYP3A4 (Homo sapiens, UniProt P08684); test: Time dependent inhibition of CYP3A4 (unknown origin) at 10 uM relative to control; assay type: ADME; conditions: read-out: TDI
[2] = Tmax in ICR mouse at 50 mg/kg,po measured upto 24 hrs by LC-MS/MS analysis; assay type: ADME, organism-based; conditions: in vivo
[3] = molecular target: Tyrosine-protein kinase Mer (Homo sapiens, UniProt Q12866); test: Inhibition of human MER
[4] = molecular target: Tyrosine-protein kinase BTK (Homo sapiens, UniProt Q06187); test: Inhibition of human BTK
[5] = Toxicity in BALB/c mouse xenografted with human CAPAN-1 cells assessed as change in body weight at 50 mg/kg,po once daily for 3 weeks administrated 4 days weekly in presence of gemcitabine; assay type: organism-based; conditions: in vivo, 504 h
[6] = Apparent permeability across apical to basolateral side in human Caco-2 cells; assay type: ADME, cell-based
[7] = molecular target: Serine/threonine-protein kinase mTOR (Homo sapiens, UniProt P42345); test: Inhibition of human mTOR
[8] = Toxicity in BALB/c mouse xenografted with human HT-29 cells assessed as change in body weight at 50 mg/kg,po once daily for 4 weeks in presence of 3 Gy of ionizing radiation; assay type: organism-based; conditions: in vivo, 672 h
CYP2C19 = CYP2C19 (Homo sapiens, UniProt P33261); test: Time dependent inhibition of CYP2C19 (unknown origin) at 10 uM relative to control; assay type: ADME; conditions: read-out: TDI
[9] = molecular target: Tyrosine-protein kinase JAK1 (Homo sapiens, UniProt P23458); test: Inhibition of human JAK1
[10] = molecular target: Serine/threonine-protein kinase BRSK2 (Homo sapiens, UniProt Q8IWQ3); test: Inhibition of human BRSK2
[11] = Toxicity in BALB/c mouse xenografted with human PC-3 cells assessed as change in body weight at 50 mg/kg,po bid for 3 weeks administrated 5 days weekly; assay type: organism-based; conditions: in vivo, 504 h
[12] = molecular target: Serine/threonine-protein kinase 17B (Homo sapiens, UniProt O94768); test: Inhibition of human DRAK2
CYP2D6 = CYP2D6 (Homo sapiens, UniProt P10635); test: Time dependent inhibition of CYP2D6 (unknown origin) at 10 uM relative to control; assay type: ADME; conditions: read-out: TDI
[13] = Toxicity in CB17-SCID mouse xenografted with human Granta-519 cells assessed as change in body weight at 50 mg/kg,po once daily for 3 weeks administrated 5 days weekly in presence of niraparib; assay type: organism-based; conditions: in vivo, 504 h
ATR/ATRIP = ATR/ATRIP (Homo sapiens, UniProt Q13535); test: Inhibition of ATR/ATRIP (unknown origin) using 5-FAM-AK-17 as substrate preincubated with compound for 10 mins followed by ATP addition and measured after 240 mins by mobility shift assay; assay type: protein-complex assay
[14] = AUClast in ICR mouse at 50 mg/kg,po measured upto 24 hrs by LC-MS/MS analysis; assay type: ADME, organism-based; conditions: in vivo
[15] = Apparent permeability across basolateral to apical side in human Caco-2 cells; assay type: ADME, cell-based
[16] = molecular target: DNA-dependent protein kinase catalytic subunit (Homo sapiens, UniProt P78527); test: Inhibition of human DNA-PK
[17] = molecular target: Interleukin-1 receptor-associated kinase 4 (Homo sapiens, UniProt Q9NWZ3); test: Inhibition of human IRAK4
Granta-519 [18] = test: Induction of apoptosis in human Granta-519 cells assessed as viable cells at 2000 nM incubated for 48 hrs by Annexin-V-FITC/propidium iodide staining based flow cytometry (reference value: 92.7 %); assay type: functional; conditions: read-out: Activity
[19] = Acute toxicity in Beagle dog assessed as change in body weight at 10 to 90 mg/kg,po once daily for 7 days; assay type: organism-based, Canis lupus familiaris; conditions: in vivo, 168 h, dose 10-90 mg/kg, time 7 day
[20] = Apparent permeability across basolateral to apical side in dog MDCK-MDR1 cells; assay type: ADME, cell-based, Canis lupus familiaris
[21] = Acute toxicity in Beagle dog assessed as change in serum creatinine level at 10 to 90 mg/kg,po once daily for 7 days; assay type: organism-based, Canis lupus familiaris; conditions: in vivo, 168 h, dose 10-90 mg/kg, time 7 day
[22] = Apparent permeability across apical to basolateral side in dog MDCK-MDR1 cells; assay type: ADME, cell-based, Canis lupus familiaris
[23] = Acute toxicity in Beagle dog assessed as change in platelet count at 10 to 90 mg/kg,po once daily for 7 days; assay type: organism-based, Canis lupus familiaris; conditions: in vivo, 168 h, dose 10-90 mg/kg, time 7 day
[24] = molecular target: Tyrosine-protein kinase Lck (Homo sapiens, UniProt P06239); test: Inhibition of human LCK
[25] = molecular target: Tyrosine-protein kinase Lyn (Homo sapiens, UniProt P07948); test: Inhibition of human LYN
[26] = molecular target: Phosphatidylinositol 4,5-bisphosphate 3-kinase catalytic subunit alpha isoform (Homo sapiens, UniProt P42336); test: Inhibition of human PI3Kalpha
[27] = Lipophilicity, logD of compound at pH 7.4; assay type: physicochemical; conditions: buffer
[28] = AUCinfinity in ICR mouse at 50 mg/kg,po measured upto 24 hrs by LC-MS/MS analysis; assay type: ADME, organism-based; conditions: in vivo
[29] = molecular target: Cyclin-dependent kinase 2 (Homo sapiens, UniProt P24941); test: Inhibition of human CDK2
Granta-519 [30] = test: Induction of apoptosis in human Granta-519 cells assessed as viable cells at 500 nM incubated for 48 hrs by Annexin-V-FITC/propidium iodide staining based flow cytometry (reference value: 92.7 %); assay type: functional; conditions: read-out: Activity
[31] = molecular target: Serine/threonine-protein kinase ATR (Homo sapiens, UniProt Q13535); test: Inhibition of human ATR
AMPK alpha2/beta1/gamma1 = AMPK alpha2/beta1/gamma1 (Homo sapiens, UniProt P54619+P54646+Q9Y478); test: Inhibition of human AMPK alpha2/beta1/gamma1; assay type: protein-complex assay
[32] = molecular target: Serine-protein kinase ATM (Homo sapiens, UniProt Q13315); test: Inhibition of human ATM
[33] = molecular target: Receptor-type tyrosine-protein kinase FLT3 (Homo sapiens, UniProt P36888); test: Inhibition of human FLT3
[34] = Toxicity in BALB/c mouse xenografted with human A2780 cells assessed as change in body weight at 50 mg/kg,po bid for 3 weeks administrated 5 days weekly; assay type: organism-based; conditions: in vivo, 504 h
CYP2C9 = CYP2C9 (Homo sapiens, UniProt P11712); test: Time dependent inhibition of CYP2C9 (unknown origin) at 10 uM relative to control; assay type: ADME; conditions: read-out: TDI
[35] = molecular target: NUAK family SNF1-like kinase 1 (Homo sapiens, UniProt O60285); test: Inhibition of human ARK5
Aurora kinase B = Aurora kinase B (Homo sapiens, UniProt Q96GD4); test: Inhibition of human Aurora B
[36] = Half life in ICR mouse at 50 mg/kg,po measured upto 24 hrs by LC-MS/MS analysis; assay type: ADME, organism-based; conditions: in vivo
[37] = Cmax in ICR mouse at 50 mg/kg,po measured upto 24 hrs by LC-MS/MS analysis; assay type: ADME, organism-based; conditions: in vivo
[38] = Plasma protein binding in mouse; assay type: ADME, cell-free; conditions: read-out: PPB (converted)
Granta-519 [39] = test: Induction of apoptosis in human Granta-519 cells assessed as viable cells at 1000 nM incubated for 48 hrs by Annexin-V-FITC/propidium iodide staining based flow cytometry (reference value: 92.7 %); assay type: functional; conditions: read-out: Activity
[40] = Toxicity in CB17-SCID mouse xenografted with human Granta-519 cells assessed as change in body weight at 50 mg/kg,po bid for 3 weeks administrated 5 days weekly; assay type: organism-based; conditions: in vivo, 504 h
CYP1A2 = CYP1A2 (Homo sapiens, UniProt P05177); test: Time dependent inhibition of CYP1A2 (unknown origin) at 10 uM relative to control; assay type: ADME; conditions: read-out: TDI
Sequence of CYP1A2 (P05177 whole entry): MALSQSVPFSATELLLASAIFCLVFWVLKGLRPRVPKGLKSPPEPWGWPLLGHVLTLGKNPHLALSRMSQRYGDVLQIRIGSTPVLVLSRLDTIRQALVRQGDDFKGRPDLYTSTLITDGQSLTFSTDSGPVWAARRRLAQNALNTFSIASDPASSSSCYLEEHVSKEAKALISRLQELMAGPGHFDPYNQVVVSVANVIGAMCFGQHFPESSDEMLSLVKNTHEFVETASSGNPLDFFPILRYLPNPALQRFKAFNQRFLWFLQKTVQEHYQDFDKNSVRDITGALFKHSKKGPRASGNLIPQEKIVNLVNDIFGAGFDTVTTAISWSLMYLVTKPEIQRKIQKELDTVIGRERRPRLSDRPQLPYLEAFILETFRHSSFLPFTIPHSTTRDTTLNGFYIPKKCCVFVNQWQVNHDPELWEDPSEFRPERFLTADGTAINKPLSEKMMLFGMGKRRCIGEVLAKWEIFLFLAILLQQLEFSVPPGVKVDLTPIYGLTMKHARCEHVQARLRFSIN

Sequence of Interleukin-1 receptor-associated kinase 4 (Q9NWZ3 whole entry): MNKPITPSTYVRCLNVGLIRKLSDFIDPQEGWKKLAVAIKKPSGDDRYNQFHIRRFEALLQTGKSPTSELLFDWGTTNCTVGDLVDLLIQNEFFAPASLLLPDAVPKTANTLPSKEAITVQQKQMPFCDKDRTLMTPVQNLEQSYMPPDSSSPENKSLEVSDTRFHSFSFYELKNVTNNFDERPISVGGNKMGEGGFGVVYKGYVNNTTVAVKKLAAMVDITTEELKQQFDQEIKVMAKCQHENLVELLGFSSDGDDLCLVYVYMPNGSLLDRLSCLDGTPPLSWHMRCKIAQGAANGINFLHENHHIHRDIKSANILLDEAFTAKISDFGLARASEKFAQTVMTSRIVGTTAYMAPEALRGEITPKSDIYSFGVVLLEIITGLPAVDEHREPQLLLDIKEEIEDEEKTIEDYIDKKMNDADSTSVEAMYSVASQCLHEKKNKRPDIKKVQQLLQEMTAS
Sequence of CYP2C9 (P11712 whole entry): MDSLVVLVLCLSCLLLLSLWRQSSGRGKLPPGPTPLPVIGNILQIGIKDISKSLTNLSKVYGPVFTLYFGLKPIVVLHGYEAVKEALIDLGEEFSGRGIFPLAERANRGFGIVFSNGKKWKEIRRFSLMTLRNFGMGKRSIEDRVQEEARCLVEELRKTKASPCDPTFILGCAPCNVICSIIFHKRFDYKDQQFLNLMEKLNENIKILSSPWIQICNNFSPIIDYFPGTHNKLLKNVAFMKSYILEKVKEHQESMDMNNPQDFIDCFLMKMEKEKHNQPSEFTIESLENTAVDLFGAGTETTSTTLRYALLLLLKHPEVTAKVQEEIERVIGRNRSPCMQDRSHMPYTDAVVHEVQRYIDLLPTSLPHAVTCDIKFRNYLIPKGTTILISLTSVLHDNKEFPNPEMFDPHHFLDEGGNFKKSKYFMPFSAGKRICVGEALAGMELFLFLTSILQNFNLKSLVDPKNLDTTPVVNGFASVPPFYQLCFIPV
Sequence of Aurora kinase B (Q96GD4 whole entry): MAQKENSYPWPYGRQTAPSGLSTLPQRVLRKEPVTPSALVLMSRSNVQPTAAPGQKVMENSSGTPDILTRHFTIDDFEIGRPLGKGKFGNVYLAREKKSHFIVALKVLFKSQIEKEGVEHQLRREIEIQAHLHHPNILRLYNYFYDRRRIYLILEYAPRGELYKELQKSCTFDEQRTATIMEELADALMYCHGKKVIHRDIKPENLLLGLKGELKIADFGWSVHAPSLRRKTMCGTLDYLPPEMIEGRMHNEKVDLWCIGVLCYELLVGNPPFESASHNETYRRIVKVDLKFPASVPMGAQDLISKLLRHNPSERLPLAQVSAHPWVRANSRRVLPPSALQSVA
Sequence of Serine/threonine-protein kinase BRSK2 (Q8IWQ3 whole entry): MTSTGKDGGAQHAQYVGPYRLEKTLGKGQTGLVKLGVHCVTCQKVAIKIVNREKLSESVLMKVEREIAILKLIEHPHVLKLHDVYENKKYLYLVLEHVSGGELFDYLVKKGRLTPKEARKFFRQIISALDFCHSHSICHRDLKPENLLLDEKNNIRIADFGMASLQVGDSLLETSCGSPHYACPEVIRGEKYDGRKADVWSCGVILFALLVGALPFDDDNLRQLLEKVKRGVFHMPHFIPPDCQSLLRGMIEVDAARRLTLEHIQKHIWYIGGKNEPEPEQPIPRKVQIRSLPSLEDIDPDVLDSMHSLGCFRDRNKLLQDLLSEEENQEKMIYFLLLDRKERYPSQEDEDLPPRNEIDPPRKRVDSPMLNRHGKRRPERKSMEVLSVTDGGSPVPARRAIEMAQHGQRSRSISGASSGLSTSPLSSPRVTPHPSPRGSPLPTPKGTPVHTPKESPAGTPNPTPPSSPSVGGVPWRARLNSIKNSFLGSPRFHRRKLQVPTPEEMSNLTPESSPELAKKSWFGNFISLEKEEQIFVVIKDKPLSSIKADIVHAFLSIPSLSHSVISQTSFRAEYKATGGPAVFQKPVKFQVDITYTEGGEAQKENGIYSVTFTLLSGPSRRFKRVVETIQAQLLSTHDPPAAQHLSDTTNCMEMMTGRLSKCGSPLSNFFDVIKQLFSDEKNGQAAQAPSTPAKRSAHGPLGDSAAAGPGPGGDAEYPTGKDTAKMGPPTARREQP
Sequence of Tyrosine-protein kinase Lck (P06239 whole entry): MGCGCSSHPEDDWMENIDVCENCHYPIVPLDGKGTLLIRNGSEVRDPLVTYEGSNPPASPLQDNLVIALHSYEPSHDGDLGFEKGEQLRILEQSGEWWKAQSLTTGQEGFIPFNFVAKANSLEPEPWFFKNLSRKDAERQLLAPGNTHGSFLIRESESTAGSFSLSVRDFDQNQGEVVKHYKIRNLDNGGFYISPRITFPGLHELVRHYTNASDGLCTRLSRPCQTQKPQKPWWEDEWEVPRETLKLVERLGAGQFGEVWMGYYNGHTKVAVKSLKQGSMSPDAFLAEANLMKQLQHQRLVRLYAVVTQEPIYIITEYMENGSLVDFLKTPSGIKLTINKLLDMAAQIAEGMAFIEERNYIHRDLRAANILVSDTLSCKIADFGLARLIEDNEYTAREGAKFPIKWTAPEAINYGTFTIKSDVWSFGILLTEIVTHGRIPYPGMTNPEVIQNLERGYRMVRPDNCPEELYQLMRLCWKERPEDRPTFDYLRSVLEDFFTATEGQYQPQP
Sequence of CYP2C19 (P33261 whole entry): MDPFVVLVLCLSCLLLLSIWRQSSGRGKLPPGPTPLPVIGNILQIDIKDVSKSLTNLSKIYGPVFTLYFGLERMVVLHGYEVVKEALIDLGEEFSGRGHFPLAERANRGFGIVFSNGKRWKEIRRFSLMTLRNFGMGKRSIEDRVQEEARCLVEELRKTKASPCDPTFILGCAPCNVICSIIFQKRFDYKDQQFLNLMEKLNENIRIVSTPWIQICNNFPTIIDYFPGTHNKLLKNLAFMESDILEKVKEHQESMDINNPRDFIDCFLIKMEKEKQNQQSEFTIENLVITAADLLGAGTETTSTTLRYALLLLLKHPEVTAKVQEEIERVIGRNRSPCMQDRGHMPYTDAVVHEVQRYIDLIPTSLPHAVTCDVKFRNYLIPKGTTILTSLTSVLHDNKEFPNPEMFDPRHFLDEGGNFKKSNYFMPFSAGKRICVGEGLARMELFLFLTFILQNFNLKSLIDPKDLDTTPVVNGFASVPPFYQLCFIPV
Sequence of Tyrosine-protein kinase BTK (Q06187 whole entry): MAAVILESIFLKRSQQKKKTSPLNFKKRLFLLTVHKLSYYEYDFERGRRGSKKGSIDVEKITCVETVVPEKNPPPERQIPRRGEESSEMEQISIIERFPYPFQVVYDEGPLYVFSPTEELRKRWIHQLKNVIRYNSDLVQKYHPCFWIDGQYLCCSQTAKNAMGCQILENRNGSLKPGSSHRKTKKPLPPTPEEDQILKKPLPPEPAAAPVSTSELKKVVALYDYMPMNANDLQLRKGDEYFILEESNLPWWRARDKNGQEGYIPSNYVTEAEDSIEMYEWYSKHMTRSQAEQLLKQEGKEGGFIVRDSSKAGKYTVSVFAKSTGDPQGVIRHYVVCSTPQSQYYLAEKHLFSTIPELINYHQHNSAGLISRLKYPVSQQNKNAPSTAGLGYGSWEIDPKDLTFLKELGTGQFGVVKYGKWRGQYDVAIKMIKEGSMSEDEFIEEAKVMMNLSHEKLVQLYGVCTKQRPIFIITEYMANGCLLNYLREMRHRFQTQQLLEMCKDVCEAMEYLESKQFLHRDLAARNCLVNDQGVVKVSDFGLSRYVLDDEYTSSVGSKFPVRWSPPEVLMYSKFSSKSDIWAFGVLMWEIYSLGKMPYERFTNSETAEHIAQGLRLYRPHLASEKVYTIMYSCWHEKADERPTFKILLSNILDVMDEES
Sequence of Tyrosine-protein kinase Lyn (P07948 whole entry, canonical isoform): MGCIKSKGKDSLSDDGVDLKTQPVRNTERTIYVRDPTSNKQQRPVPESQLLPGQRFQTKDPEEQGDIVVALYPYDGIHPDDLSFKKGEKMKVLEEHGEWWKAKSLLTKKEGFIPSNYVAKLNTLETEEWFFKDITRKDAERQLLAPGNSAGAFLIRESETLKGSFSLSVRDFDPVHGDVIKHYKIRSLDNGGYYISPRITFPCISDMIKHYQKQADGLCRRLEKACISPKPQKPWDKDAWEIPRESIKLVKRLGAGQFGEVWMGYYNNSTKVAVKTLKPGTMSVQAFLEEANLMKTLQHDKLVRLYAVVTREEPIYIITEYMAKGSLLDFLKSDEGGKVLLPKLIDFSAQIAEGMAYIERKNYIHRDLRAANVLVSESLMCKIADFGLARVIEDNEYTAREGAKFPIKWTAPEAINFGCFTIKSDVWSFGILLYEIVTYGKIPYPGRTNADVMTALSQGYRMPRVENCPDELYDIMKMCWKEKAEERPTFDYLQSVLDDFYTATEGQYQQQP

C[C@@H]1COCCN1c1nc(-c2ccnc3[nH]ccc23)nc2c1ccn2S(C)(=O)=O
BPR [1]: 31%
inhibition at 10 µM (CYP3A4): 21.2%
Tmax [2]: 1 h
IC50 [3]: > 10 µM
IC50 [4]: > 10 µM
Activity [5]: Toxic
Papp A→B [6]: 39.6 ×10⁻⁶ cm/s
IC50 [7]: 0.0458 µM
Activity [8]: Toxic
inhibition at 10 µM (CYP2C19): 12.1%
IC50 [9]: > 10 µM
IC50 [10]: > 10 µM
Activity [11]: Toxic
IC50 [12]: > 10 µM
inhibition at 10 µM (CYP2D6): 2%
Activity [13]: Toxic
IC50 (ATR/ATRIP): 0.0016 µM
AUC(0-t) at 24 h [14]: 140 µg·h/mL
Papp B→A [15]: 32.5 ×10⁻⁶ cm/s
IC50 [16]: 0.119 µM
IC50 [17]: > 10 µM
viability at 2 µM (Granta-519 [18]): 76.9%
Activity [19]: Non-Toxic
Papp B→A [20]: 51.2 ×10⁻⁶ cm/s
Activity [21]: Toxic
Papp A→B [22]: 41.9 ×10⁻⁶ cm/s
Activity [23]: Toxic
IC50 [24]: 2.59 µM
IC50 [25]: > 10 µM
IC50 [26]: 2.06 µM
logD [27]: 3.61
AUC(0-inf) [28]: 140 µg·h/mL
IC50 [29]: > 10 µM
viability at 0.5 µM (Granta-519 [30]): 89.6%
IC50 [31]: 0.0025 µM
IC50 (AMPK alpha2/beta1/gamma1): > 10 µM
IC50 [32]: 3.21 µM
IC50 [33]: > 10 µM
Activity [34]: Toxic
inhibition at 10 µM (CYP2C9): 7.09%
IC50 [35]: 7.31 µM
IC50 (Aurora kinase B): > 10 µM
half-life [36]: 2.29 h
Cmax [37]: 19800 ng/mL
fraction unbound [38]: 0.005
viability at 1 µM (Granta-519 [39]): 81.3%
Activity [40]: Toxic
inhibition at 10 µM (CYP1A2): 37.5%
